Experimental findings from US6727387B2, “Quaternary ammonium salts having a tertiary alkyl group” (Rohm and Haas Company, priority 2001, dated 2004) are described below.

Where only a bound is given, the exact number is not on record here.

Experiment [1] relates to Pseudomonas aeruginosa 13388. The experiment in a line: High resolution minimum inhibitory concentration (HRMIC) test, Gram-negative bacterium. Format: cell-based. To be noted: for Activity against Gram-negative test organism (in words): HRMIC test; for MIC: M9GY, 10^6 CFU/ml, 30° C., 24 hours, read-out: MIC (ppm) Average, Gram-negative. The protocol:
(§1) The five alkylation products from Route B, as described in Table 1, were tested for their ability to inhibit the growth of a Gram-positive bacterium, Staphylococcus aureus 6538 and a Gram-negative bacterium, Pseudomonas aeruginosa 13388 in a high resolution minimum inhibitory concentration (HRMIC) test. Two of the compounds showing biological activity were also tested for activity against sulfate-reducing bacteria (SRB). HR MIC Test Method: Varying amounts of test compound dissolved in DMSO were added to […] in a 96-well microtiter plate. Ten-fold serial dilutions were performed on a Biomek 2000 Workstation to obtain a range of closely spaced concentrations of biocide as illustrated in Table 2. A cell suspension of either Pseudomonas aeruginosa 13388 or Staphylococcus aureus 6538, adjusted to provide 10^6 CFU/ml in each well, was added to each microtiter plate. Kathon® WT biocide and Hyamine® 3500 biocide (dimethyl benzyl ammonium chloride) were included in the test for comparison. The microtiter plates were incubated at 30° C. for 24 hours and were then checked for the presence or absence of microbial growth in each well. […] Each compound was evaluated in duplicate on three separate days. [table]

The subject of experiment [2] is Staphylococcus aureus 6538. The experiment is described as follows: High resolution minimum inhibitory concentration (HRMIC) test, Gram-positive bacterium. Format: cell-based. To be noted: for Activity against Gram-positive test organism (in words): HRMIC test; for MIC: M9GY, 10^6 CFU/ml, 30° C., 24 hours, read-out: MIC (ppm) Average, Gram-positive. The protocol:
as §1

One may read the MIC as the least concentration at which growth counts as inhibited. Regarding `CC(C)(C)CC(C)(C)[N+](C)(C)C.[Br-]` [TOA Br^−, N,N,N-Trimethyl t-octyl ammonium bromide], in experiment [1], the “Activity against Gram-negative test organism (in words)” value is on record as “showed no activity” and the MIC is greater than 1000 µg/mL. Besides, in experiment [2], the “Activity against Gram-positive test organism (in words)” value was “showed no activity” and the MIC was greater than 1000 µg/mL.
Regarding `CC(C)(C)CC(C)(C)[N+](C)(C)C.[I-]` [TOA I^−, N,N,N-Trimethyl t-octylammonium iodide], in experiment [1], the “Activity against Gram-negative test organism (in words)” value is on record as “showed no activity” and the MIC is greater than 1000 µg/mL. Also, in experiment [2], the “Activity against Gram-positive test organism (in words)” value is reported as “showed no activity” and the MIC was greater than 1000 µg/mL.
